Source: ChEMBL document CHEMBL4118026, “Limaol: A Polyketide from the Benthic Marine Dinoflagellate Prorocentrum lima” (J Nat Prod, 2017)

Assays:
Format in all cases: functional, cell-based
HCT-116 = experiment: Cytotoxicity against human HCT116 cells after 24 hrs by MTT assay; conditions: HCT-116, 24 h
N2a = experiment: Cytotoxicity against mouse Neuro2a cells after 24 hrs by MTT assay
HepG2 = experiment: Cytotoxicity against human HepG2 cells after 24 hrs by MTT assay; conditions: HepG2, 24 h

Row | Compound | IC50 (HCT-116) | IC50 (N2a) | IC50 (HepG2)
1 | C=C(CC(=C)CC(=C)C[C@H]1CC(C)=C[C@@]2(C[C@@H](O)[C@H]3O[C@H](C[C@@H](O)CC(=C)C[C@H]4O[C@H](C/C=C/CCO)C[C@@H](O)[C@@H]4O)[C@H](O)[C@@H](O)[C@@H]3O2)O1)CC(=C)C[C@@H](C)C[C@@H](C)O | 7300 nM | 9600 nM | 3700 nM
2 | C=C1[C@@H](O)[C@@H]2O[C@]3(CC[C@H](/C=C/[C@@H](C)[C@@H]4CC(C)=C[C@@]5(O[C@H](C[C@@](C)(O)C(=O)O)CC[C@H]5O)O4)O3)CC[C@H]2O[C@@H]1[C@@H](O)C[C@H](C)[C@H]1O[C@@]2(CCCCO2)CC[C@H]1C [OKADAIC ACID] | 670 nM | 850 nM | 540 nM
